{
  "source": "patent US11167012B2",
  "about": "“Peptide inhibition of CCR3-mediated diseases or conditions” (The Board of Trustees of the University of Illinois, priority 2015, dated 2021)",
  "key": {"CCR3 [1]": {"target": "T1, CCR3 (Homo sapiens, UniProt P51677)", "T1 sequence (P51677 1-355)": "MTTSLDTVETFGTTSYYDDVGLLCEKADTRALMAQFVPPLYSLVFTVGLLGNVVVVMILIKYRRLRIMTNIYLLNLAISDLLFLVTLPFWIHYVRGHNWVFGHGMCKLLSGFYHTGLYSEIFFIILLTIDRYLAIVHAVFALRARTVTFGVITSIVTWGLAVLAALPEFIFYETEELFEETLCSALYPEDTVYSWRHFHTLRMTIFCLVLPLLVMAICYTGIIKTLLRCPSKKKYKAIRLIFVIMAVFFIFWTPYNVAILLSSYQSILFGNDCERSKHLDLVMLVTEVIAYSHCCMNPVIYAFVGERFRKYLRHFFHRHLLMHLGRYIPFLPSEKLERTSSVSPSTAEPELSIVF", "assay": "CCR3 degradation in cycloheximide-treated AML14.3D10-CCR3 cells, immunoblot", "type": "cell-based", "parameters": "host or cells: AML14.3D10-CCR3 (eosinophilic myelocytic cell line, kept under G418)", "settings": "10 μM, 8 nM eotaxin or RANTES for 3 hours", "method": "AML14.3D10-CCR3 cells were resuspended in RPMI-1640+0.1% BSA. Aliquots of 1×10^6 cells were pretreated with 10 μM cycloheximide for 1 hour at 37° C. Some cells were concurrently pretreated with 10 μM R3-2-1, 10 μM MG132, or both for 30 minutes. Pretreated cells were stimulated with 8 nM eotaxin or RANTES for 3 hours to induce receptor degradation. An aliquot of untreated cells were reserved at the start of the experiment to establish baseline CCR3 expression. All cells were then lysed in RIPA buffer and immunoblotted for CCR3 with a polyclonal rabbit anti-CCR3 antibody (Abcam) followed by goat anti-rabbit IgG-HRP secondary antibody (Santa Cruz)."}, "[2]": {"assay": "Dynamic light scattering of peptide solution", "type": "physicochemical", "settings": "aqueous environment; 0.4 mg/ml in PBS", "excerpt": "As indicated herein, the CCR3 peptide analog self-assembles in aqueous medium into highly homogenous nanoparticles. Dynamic light scattering analyses indicate that the radius of the instant nanoparticles is in the range of 1 to 100 nm, more specifically about 8 nm (FIG. 1). Based upon the size and composition, the nanoparticles facilitate translocation of the peptide through the plasma membrane and protect the peptide from degradation in the blood/serum or other body fluids. Accordingly, this invention also provides a nanoparticle composition containing the CC3 peptide analog as well as methods of using the nanoparticle composition to antagonize CCR3 and in the treatment of inflammatory diseases such as asthma, and eosinophilic esophagitis."}, "CCR3 [3]": {"target": "T1, CCR3", "assay": "Chemotaxis assay (Transwell), AML14.3D10-CCR3 cells", "type": "cell-based", "parameters": "host or cells: AML14.3D10-CCR3 (eosinophilic myelocytic cell line, kept under G418)", "settings": "for IC90: 4 hours", "method": "AML14.3D10-CCR3 (ATCC, Manassas, Va.; Daugherty, et al. (1996) J. Exp. Med. 183:2349-2354) were maintained in RPMI-1640 supplemented with 10% FBS, 1.5 g/L sodium bicarbonate, 4.5 g/L glucose, 2 mM L-glutamine, 10 mM HEPES, 1 mM sodium pyruvate, 50 μM β-mercaptoethanol, and 2 mg/ml G418 in a humidified incubator with 5% CO2 at 37° C.\nCell migration was determined using a 96-well […]® system (Corning, Tewksbury, Mass.). […] The two chambers were separated by a polycarbonate filter with 5 μm pores. For AML14.3D10-CCR3 cells, 2×10^5 cells/well were resuspended in RPMI-1640+0.1% BSA and allowed to migrate for 4 hours at 37° C. For blood eosinophils, 1×10^5 cells/well were resuspended in X-VIVO 10+0.5% BSA and allowed to migrate for 3 hours at 37° C. Migrated cells were counted using a Beckman QUANTA SC flow cytometer. All experiments were performed in duplicate. Checkerboard analysis was done to distinguish chemotaxis from chemokinesis.\nPrimary eosinophils and the stable CCR3+eosinophilic myelocytic cell line, AML14.3D10-CCR3 (Daugherty, et al. (1996) J. Exp. Med. 183:2349-2354) undergo CCR3-mediated chemotaxis induced by multiple chemokines including eotaxin/CCL11, RANTES/CCL5, MCP-4/CCL13, and MEC/CCL28 (Daugherty, et al. (1996) J. Exp. Med. 183:2349-2354; Pan, et al. (2000) J. Immunol. 165:2943-2949)."}, "[4]": {"tested_on": "eosinophil recruitment into the lung airspaces", "assay": "Triple antigen (DRA) allergic mouse asthma model", "type": "in vivo", "method": "Treatment of mice with CCR3 R3-2-1 peptide nanoparticles, scrambled R3-2-3 peptide nanoparticles or vehicle controls was administered i.v. by retro-orbital injection starting on day 11, one day before intranasal DRA allergen challenges on days 12-14 to assess its effect on inhibiting the recruitment of eosinophils into the lung airspaces and airways. Blood, bronchoalveolar lavage (BAL) fluid and lung tissue were harvested on day 15.\nIn the triple antigen driven allergic mouse model, mice are sensitized and airway-challenged with a combination of aeroallergens including Dust mite, Ragweed and Aspergillus sp. (DRA; Goplen, et al. (2009) J. Allergy Clin. Immunol. 123:925-932). This model recapitulates many of the pathologic features of human asthma, including eosinophil recruitment into the lung and airspaces, eosinophil degranulation, increased expression of Th2 cytokines, airway hyperreactivity (AHR), and airway remodeling (goblet cell metaplasia and mucus overproduction), and airway smooth muscle hyperplasia and subepithelial fibrosis. Using this model, the effectiveness of R3-2-1 in blocking allergen-induced eosinophil recruitment into the airways and development of airway pathologies in mice was evaluated. It was determined whether systemic (i.v.) administration of R3-2-1 nanoparticles has the capacity to inhibit eotaxin-mediated eosinophil recruitment into the airways. Mice subjected to the triple antigen (DRA) protocol were treated with R3-2-1, scrambled peptide (R3-2-3) and vehicle controls via i.v. administration following antigen sensitization, 24 hours prior to the first allergen challenge on Day 11 of the protocol (FIG. 7), and for i.v. routes, repeated before each subsequent allergen challenge."}},
  "note": "Where “and” joins values, the source holds several entries; their conditions need not be identical. Identical values can stand only once. Where a SMILES comes first, the peptide text is derived from it. The star is where a group is joined. X1 = NC(=O)CCOCCOCCOCCOCCOCCOCCOCCOCCOCCOCCOCCOCCOCCOCCOCCOCCOCCOCCOCCOCCOCCOCCOCCOCCOCCOCCOCCOCCN*",
  "data": [
    {"smiles": "CC[C@H](C)[C@H](NC(=O)[C@H](Cc1c[nH]c2ccccc12)NC(=O)[C@H](Cc1ccccc1)NC(=O)[C@@H]1CCCN1C(=O)[C@H](CC(C)C)NC(=O)[C@@H](NC(=O)[C@@H](NC(=O)[C@H](CC(C)C)NC(=O)[C@H](Cc1ccccc1)NC(=O)[C@H](CC(C)C)NC(=O)[C@@H](N)CC(C)C)C(C)C)[C@@H](C)O)C(=O)N[C@@H](Cc1c[nH]cn1)C(=O)N[C@@H](Cc1ccc(O)cc1)C(=O)N[C@H](C(=O)N[C@@H](CCCNC(=N)N)C(=O)NCC(=O)N[C@@H](Cc1c[nH]cn1)C(=O)N[C@@H](CC(N)=O)C(=O)N[C@@H](Cc1c[nH]c2ccccc12)C(=O)N[C@H](C(=O)N[C@@H](Cc1ccccc1)C(=O)NCC(=O)N[C@@H](Cc1c[nH]cn1)C(=O)N[C@@H](CC(=O)O)C(=O)N[C@@H](CC(=O)O)C(=O)N[C@@H](CC(=O)O)C(=O)NCCOCCOCCOCCOCCOCCOCCOCCOCCOCCOCCOCCOCCOCCOCCOCCOCCOCCOCCOCCOCCOCCOCCOCCOCCOCCOCCOCCOCCC(N)=O)C(C)C)C(C)C", "note": "[Peptide R3-2-1] (H-LLFLVTLPFWIHYVRGHNWVFGHDDD-X1; N-terminus assumed)", "values": [
      {"measurement": "CCR3 degradation induced by eotaxin and RANTES", "setting": "CCR3 [1]", "value": "enhanced CCR3 degradation induced by eotaxin and RANTES"},
      {"measurement": "hydrodynamic radius of self-assembled nanospheres", "setting": "[2]", "value": "approximately 8 nm"},
      {"measurement": "tolerance to inhibition of CCL11-induced chemotaxis", "setting": "CCR3 [3]; 1 μM for 24, 48 or 72 hour, CCL11 12 nM", "value": "retains it full inhibitory activity"},
      {"measurement": "chemotactic (agonist) activity by itself", "setting": "CCR3 [3]; AML14.3D10-CCR3 cells, no chemokine", "value": "not chemotactic"},
      {"measurement": "inhibition of CCR3-mediated chemotaxis induced by Eotaxin/CCL11, RANTES/CCL5 and MEC/CCL28", "setting": "CCR3 [3]; AML14.3D10-CCR3 cells, R3-2-1 0.4, 2 or 10 μM", "value": "inhibits chemotaxis induced by Eotaxin/CCL11, RANTES/CCL5 and MEC/CCL28 in a dose-dependent fashion"},
      {"measurement": "IC90", "setting": "CCR3 [3]; AML14.3D10-CCR3 cells, chemotaxis to CCL11/Eotaxin-1 (12 nM)", "value": "1750 ± 200", "unit": "nM"},
      {"measurement": "IC90", "setting": "CCR3 [3]; AML14.3D10-CCR3 cells, chemotaxis to CCL24/Eotaxin-2 (20 nM)", "value": "890 ± 120", "unit": "nM"},
      {"measurement": "IC90", "setting": "CCR3 [3]; AML14.3D10-CCR3 cells, chemotaxis to CCL26/Eotaxin-3 (100 nM)", "value": "780 ± 100", "unit": "nM"},
      {"measurement": "% Inhibition of eosinophil recruitment (BAL fluid)", "setting": "[4]; 3 mg/kg i.v.", "value": "19.54 ± 14.81", "unit": "%"},
      {"measurement": "% Inhibition of eosinophil recruitment (BAL fluid)", "setting": "[4]; 6 mg/kg i.v.", "value": "44.24 ± 9.33", "unit": "%"},
      {"measurement": "% Inhibition of eosinophil recruitment (BAL fluid)", "setting": "[4]; 9 mg/kg i.v.", "value": "53.03 ± 10.82", "unit": "%"},
      {"measurement": "% Inhibition of eosinophil recruitment (BAL fluid)", "setting": "[4]; 12 mg/kg i.v., compared to vehicle and R3-2-3 controls", "value": "69.3% and 69.33 ± 4.20%"},
      {"measurement": "IC50 for inhibition of total number of eosinophils recruited into the lung airspaces", "setting": "[4]; i.v.", "value": 8.16, "unit": "mg/kg"},
      {"measurement": "total number of eosinophils recruited into the lung airspaces", "setting": "[4]; i.v., BAL fluid", "value": "significantly inhibits"}
    ]}
  ]
}
